US12371454B2, “Cyclic peptide compound having Kras inhibitory action” (priority 2019, dated 2025)
pIC50: −log10 of the molar value. Starred links: 1 amine or outer side, 2 acyl side, 3 side chain; linkers in the order of their positions; H or OH if unused. Positions of bridges follow the written chain, without caps; N, C: chain ends. Non-standard residues stand in square brackets, D forms with d. Residues, ends and D or L forms follow the SMILES beside them. *: point of attachment. hPhe(3-Cl-4-CF3) = N[C@@H](CCc1ccc(C(F)(F)F)c(Cl)c1)C(=O)O; NMeDab(N,N-(CH2CF2CH2)) = CN[C@@H](CCN1CC(F)(F)C1)C(=O)O; hPhe(3-F,4-CF3) = N[C@@H](CCc1ccc(C(F)(F)F)c(F)c1)C(=O)O; X38 = CN([C@@H](Cc1cccc(OC(F)(F)F)c1)C(=O)[*:2])[*:1]; hPhe(4-CF3) = N[C@@H](CCc1ccc(C(F)(F)F)cc1)C(=O)O; NMePhe(4-Cl) = CN[C@@H](Cc1ccc(Cl)cc1)C(=O)O; X35 = CN([C@@](C)(Cc1ccccc1)C(=O)[*:2])[*:1]; NMePhe(4-F) = CN[C@@H](Cc1ccc(F)cc1)C(=O)O; hPhe(4-Cl) = N[C@@H](CCc1ccc(Cl)cc1)C(=O)O; NMeMet(O2) = CN[C@@H](CCS(C)(=O)=O)C(=O)O; NMeAla(cPent) = CN[C@@H](CC1CCCC1)C(=O)O; NMeGly(cPent) = CN[C@H](C(=O)O)C1CCCC1; Phe(3-I) = N[C@@H](Cc1cccc(I)c1)C(=O)O; Phe(4-Me) = Cc1ccc(C[C@H](N)C(=O)O)cc1; dβ3hPip = O=C(C[C@H]1CCCCN1[*:1])[*:2]; NMeY = CN[C@@H](Cc1ccc(O)cc1)C(=O)O; NMeCha = CN[C@@H](CC1CCCCC1)C(=O)O; Azetidine(3,3-F2) = FC1(F)CN(*)C1; NMeChg = CN[C@H](C(=O)O)C1CCCCC1; NMeF = CN[C@@H](Cc1ccccc1)C(=O)O; NMeD = CN[C@@H](CC(=O)O)C(=O)O; NMeL = CN[C@@H](CC(C)C)C(=O)O; NMehSer = CN[C@@H](CCO)C(=O)O; NMeV = CN[C@H](C(=O)O)C(C)C; d(β3hA) = C[C@@H](N)CC(=O)O; Iva = CC[C@](C)(N)C(=O)O; NMeA = CN[C@@H](C)C(=O)O; NMeAib = CNC(C)(C)C(=O)O; Nle = CCCC[C@H](N)C(=O)O; Piperidide = C1CCN(*)CC1; Pyrrolidide = C1CCN(*)C1; Ac5c = NC1(C(=O)O)CCCC1; Aze = O=C(O)[C@@H]1CCN1; Ac4c = NC1(C(=O)O)CCC1; Sar = CNCC(=O)O; Propyl = CCC*

target: T1, Kras and SOS1 (biotin-tagged human Kras loaded with GDP, His-tagged human SOS1) (Homo sapiens, UniProt P01116, G12D); experiment: Protein-protein interaction inhibition between Kras and SOS1 (KrasGl2D-SOS PPI) using AlphaScreen; format: binding; settings: AlphaScreen; biotin-tagged human Kras loaded with GDP, His-tagged human SOS1; read-out: KRAS G12D-SOS PPI IC50
T1 construct: made in house; host or cells: E. coli (stated for Kras only)
Procedure, shortened: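 Read-out is acceptor-bead light at 520-620 nm, arising when 680 nm-irradiated nickel donor beads pass singlet oxygen to streptavidin acceptors. The bead pair links His-tagged SOS1 with biotin-tagged, GDP-bound Kras from E. coli.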

T1 sequence (P01116 1-188 isoform P01116-2 G12D): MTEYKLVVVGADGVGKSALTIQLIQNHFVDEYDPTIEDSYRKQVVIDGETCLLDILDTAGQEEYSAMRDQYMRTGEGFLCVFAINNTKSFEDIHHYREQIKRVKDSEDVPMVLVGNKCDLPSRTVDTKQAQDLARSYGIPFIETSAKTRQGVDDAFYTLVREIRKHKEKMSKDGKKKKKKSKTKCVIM

SMILES	pIC50
CCCC[C@@H]1NC(=O)[C@H](Cc2cccc(I)c2)NC(=O)CN(C)C(=O)[C@H](Cc2ccc(OC)cc2)N(C)C(=O)CN(C)C(=O)CN(C)C(=O)[C@H]([C@@H](C)CC)NC(=O)[C@H](CC(C)C)N(C)C(=O)C[C@@H](C(=O)N2CCCCC2)N(C)C(=O)[C@H](CC(C)C)NC(=O)[C@](C)(Cc2ccccc2)N(C)C1=O [Compound 125] ([NMeL]I[Sar][Sar][NMeY](Me)[Sar][Phe(3-I)][Nle][X35]L[NMeD]-Piperidide; lactam N-11)	8.55
CCCOC[C@@H]1NC(=O)[C@H](CC(=O)N2CC(F)(F)C2)N(C)C(=O)[C@H](CCc2ccc(C(F)(F)F)c(Cl)c2)NC(=O)CN(C)C(=O)[C@H](CC2CCCCC2)N(C)C(=O)CN(C)C(=O)CN(C)C(=O)[C@H]([C@@H](C)CC)NC(=O)[C@H](C)N(C)C(=O)C[C@@H](C(=O)N2CCCCC2)N(C)C(=O)[C@H](C(C)C)N(C)C1=O [Compound 129] ([NMeA]I[Sar][Sar][NMeCha][Sar][hPhe(3-Cl-4-CF3)][NMeD](Azetidine(3,3-F2))S(Propyl)[NMeV][NMeD]-Piperidide; lactam N-11)	7.96
CC[C@H](C)[C@@H]1NC(=O)[C@H](CC(C)C)N(C)C(=O)C[C@@H](C(=O)N(C)C)N(C)C(=O)[C@H](C2CCCC2)N(C)C(=O)[C@H](COC)NC(=O)[C@H](CCN2CC(F)(F)C2)N(C)C(=O)[C@H](CCc2ccc(C(F)(F)F)c(Cl)c2)NC(=O)CN(C)C(=O)[C@H](CC2CCCCC2)N(C)C(=O)[C@@H]2CCN2C(=O)[C@H](C)N(C)C1=O [Compound 130] ([NMeL]I[NMeA][Aze][NMeCha][Sar][hPhe(3-Cl-4-CF3)][NMeDab(N,N-(CH2CF2CH2))]S(Me)[NMeGly(cPent)][NMeD]-NMe2; lactam N-11)	8.00
CC[C@H](C)[C@@H]1NC(=O)[C@H](CC(C)C)N(C)C(=O)C[C@@H](C)NC(=O)[C@H](CC(C)C)N(C)C(=O)C2(CCC2)NC(=O)[C@@H]2CCCN2C(=O)[C@H](CCc2ccc(C(F)(F)F)c(F)c2)NC(=O)CN(C)C(=O)[C@H](CC2CCCCC2)N(C)C(=O)CN(C)C(=O)CN(C)C1=O [Compound 133] (cyclo([Ac4c][NMeL][d(β3hA)][NMeL]I[Sar][Sar][NMeCha][Sar][hPhe(3-F,4-CF3)]P))	7.64
CC[C@H](C)[C@@H]1NC(=O)[C@H](C)N(C)C(=O)C[C@@H](C(=O)N2CCCCC2)N(C)C(=O)[C@H](C(C)C)N(C)C(=O)C2(CCCC2)NC(=O)[C@@H]2CCCN2C(=O)[C@H](CCc2ccc(C(F)(F)F)c(Cl)c2)NC(=O)[C@H]2CCCN2C(=O)[C@H](CC2CCCCC2)N(C)C(=O)CN(C)C(=O)CN(C)C1=O [Compound 135] ([NMeA]I[Sar][Sar][NMeCha][dP][hPhe(3-Cl-4-CF3)]P[Ac5c][NMeV][NMeD]-Piperidide; lactam N-11)	7.42
CC[C@H](C)[C@@H]1NC(=O)[C@H](CC(C)C)N(C)C(=O)C[C@H]2CCCCN2C(=O)[C@H](C(C)C)N(C)C(=O)C2(CCCC2)NC(=O)[C@@H]2CCCN2C(=O)[C@H](CCc2ccc(C(F)(F)F)c(F)c2)NC(=O)CN(C)C(=O)[C@H](CC2CCCCC2)N(C)C(=O)CN(C)C(=O)CN(C)C1=O [Compound 142] (cyclo([Ac5c][NMeV][dβ3hPip][NMeL]I[Sar][Sar][NMeCha][Sar][hPhe(3-F,4-CF3)]P))	7.42
CCCC[C@@H]1NC(=O)[C@H](Cc2cccc(I)c2)NC(=O)CN(C)C(=O)[C@H](Cc2ccc(Cl)cc2)N(C)C(=O)CN(C)C(=O)CN(C)C(=O)[C@H]([C@@H](C)CC)NC(=O)[C@H](CC(C)C)N(C)C(=O)C[C@@H](C(=O)N2CCCCC2)N(C)C(=O)[C@H](CC(C)C)NC(=O)[C@H](Cc2cccc(OC(F)(F)F)c2)N(C)C1=O [Compound 143] ([NMeL]I[Sar][Sar][NMePhe(4-Cl)][Sar][Phe(3-I)][Nle][X38]L[NMeD]-Piperidide; lactam N-11)	7.17
CC[C@H](C)[C@@H]1NC(=O)[C@H](C)N(C)C(=O)C[C@@H](C)NC(=O)[C@H](C2CCCC2)N(C)C(=O)C2(CCCC2)NC(=O)[C@@H]2CCCN2C(=O)[C@H](CCc2ccc(C(F)(F)F)c(Cl)c2)NC(=O)CN(C)C(=O)[C@H](Cc2ccc(F)cc2)N(C)C(=O)[C@@H]2CCCN2C(=O)CN(C)C1=O [Compound 146] (cyclo([Ac5c][NMeGly(cPent)][d(β3hA)][NMeA]I[Sar]P[NMePhe(4-F)][Sar][hPhe(3-Cl-4-CF3)]P))	8.40
COC[C@@H]1NC(=O)[C@H](CC(C)C)N(C)C(=O)C[C@@H](C(=O)N2CCCCC2)N(C)C(=O)[C@H](C2CCCCC2)N(C)C(=O)C2(CCCC2)NC(=O)[C@@H]2CCCN2C(=O)[C@H](CCc2ccc(C(F)(F)F)c(Cl)c2)NC(=O)CN(C)C(=O)[C@H](CC2CCCCC2)N(C)C(=O)CN(C)C(=O)CN(C)C1=O [Compound 148] ([NMeL]S(Me)[Sar][Sar][NMeCha][Sar][hPhe(3-Cl-4-CF3)]P[Ac5c][NMeChg][NMeD]-Piperidide; lactam N-11)	8.74
CC[C@H](C)[C@@H]1NC(=O)[C@H](CC(C)C)N(C)C(=O)C[C@@H](C)NC(=O)[C@H](C(C)C)N(C)C(=O)[C@](C)(CC)NC(=O)[C@@H]2CCCN2C(=O)[C@H](CCc2ccc(C(F)(F)F)c(Cl)c2)NC(=O)CN(C)C(=O)[C@H](CC2CCCCC2)N(C)C(=O)CN(C)C(=O)CN(C)C1=O [Compound 149] (cyclo(I[Sar][Sar][NMeCha][Sar][hPhe(3-Cl-4-CF3)]P[Iva][NMeV][d(β3hA)][NMeL]))	7.29
CC[C@H](C)[C@@H]1NC(=O)[C@H](C)N(C)C(=O)C[C@@H](C(=O)N2CCCC2)NC(=O)[C@H](C(C)C)N(C)C(=O)[C@H](Cc2ccccc2)N(C)C(=O)[C@H](CC(C)C)N(C)C(=O)[C@H](CCc2ccc(C(F)(F)F)cc2)NC(=O)CN(C)C(=O)[C@H](Cc2ccc(Cl)cc2)N(C)C(=O)CN(C)C(=O)CN(C)C1=O [Compound 152] ([NMeA]I[Sar][Sar][NMePhe(4-Cl)][Sar][hPhe(4-CF3)][NMeL][NMeF][NMeV]D-Pyrrolidide; lactam N-11)	6.96
CCCOC[C@@H]1NC(=O)[C@H](CCN2CC(F)(F)C2)N(C)C(=O)[C@H](CCc2ccc(C(F)(F)F)c(Cl)c2)NC(=O)CN(C)C(=O)[C@H](CC2CCCCC2)N(C)C(=O)CN(C)C(=O)CN(C)C(=O)[C@H]([C@@H](C)CC)NC(=O)[C@H](C)N(C)C(=O)C[C@@H](C(=O)N2CCCCC2)N(C)C(=O)[C@H](C(C)C)N(C)C1=O [Compound 154] ([NMeA]I[Sar][Sar][NMeCha][Sar][hPhe(3-Cl-4-CF3)][NMeDab(N,N-(CH2CF2CH2))]S(Propyl)[NMeV][NMeD]-Piperidide; lactam N-11)	8.32
CC[C@H](C)[C@@H]1NC(=O)[C@H](C(C)C)N(C)C(=O)C[C@@H](C)NC(=O)[C@H](CC(C)C)N(C)C(=O)C2(CCCC2)NC(=O)[C@H](CC(C)C)N(C)C(=O)[C@H](CCc2ccc(C(F)(F)F)c(Cl)c2)NC(=O)CN(C)C(=O)[C@H](Cc2ccc(Cl)cc2)N(C)C(=O)[C@@H]2CCN2C(=O)CN(C)C1=O [Compound 158] (cyclo([Ac5c][NMeL][d(β3hA)][NMeV]I[Sar][Aze][NMePhe(4-Cl)][Sar][hPhe(3-Cl-4-CF3)][NMeL]))	8.00
CC[C@H](C)[C@@H]1NC(=O)[C@H](CC(C)C)N(C)C(=O)C[C@@H](C(=O)N2CCCCC2)N(C)C(=O)[C@H](C2CCCCC2)N(C)C(=O)C2(CCCC2)NC(=O)[C@@H]2CCCN2C(=O)[C@H](CCc2ccc(C(F)(F)F)c(Cl)c2)NC(=O)CN(C)C(=O)[C@H](CCOC)N(C)C(=O)CN(C)C(=O)CN(C)C1=O [Compound 159] ([NMeL]I[Sar][Sar][NMehSer](Me)[Sar][hPhe(3-Cl-4-CF3)]P[Ac5c][NMeChg][NMeD]-Piperidide; lactam N-11)	8.62
CC[C@H](C)[C@@H]1NC(=O)[C@H](CC(C)C)N(C)C(=O)C[C@@H](C(=O)N2CCCCC2)N(C)C(=O)[C@H](CCS(C)(=O)=O)N(C)C(=O)C2(CCCC2)NC(=O)[C@@H]2CCCN2C(=O)[C@H](CCc2ccc(C(F)(F)F)c(Cl)c2)NC(=O)CN(C)C(=O)[C@H](CC2CCCCC2)N(C)C(=O)CN(C)C(=O)CN(C)C1=O [Compound 162] ([NMeL]I[Sar][Sar][NMeCha][Sar][hPhe(3-Cl-4-CF3)]P[Ac5c][NMeMet(O2)][NMeD]-Piperidide; lactam N-11)	6.64
CC[C@H](C)[C@@H]1NC(=O)[C@H](CC(C)C)N(C)C(=O)C[C@@H](C(=O)N2CCCCC2)N(C)C(=O)[C@H](CC(C)C)NC(=O)C(C)(C)N(C)C(=O)[C@H](Cc2ccc(C)cc2)NC(=O)[C@H](Cc2cccc(I)c2)NC(=O)CN(C)C(=O)[C@H](CC2CCCCC2)N(C)C(=O)CN(C)C(=O)CN(C)C1=O [Compound 166] ([NMeL]I[Sar][Sar][NMeCha][Sar][Phe(3-I)][Phe(4-Me)][NMeAib]L[NMeD]-Piperidide; lactam N-11)	7.68
CC[C@H](C)[C@@H]1NC(=O)[C@H](CC(C)C)N(C)C(=O)C[C@@H](C(=O)N2CCCCC2)N(C)C(=O)[C@H](C(C)C)N(C)C(=O)C2(CCCC2)NC(=O)[C@@H]2CCCN2C(=O)[C@H](CCc2ccc(Cl)cc2)NC(=O)CN(C)C(=O)[C@H](CC2CCCC2)N(C)C(=O)CN(C)C(=O)CN(C)C1=O [Compound 167] ([NMeL]I[Sar][Sar][NMeAla(cPent)][Sar][hPhe(4-Cl)]P[Ac5c][NMeV][NMeD]-Piperidide; lactam N-11)	7.24
CC[C@H](C)[C@@H]1NC(=O)[C@H](CC(C)C)N(C)C(=O)C[C@@H](C(=O)N2CCCCC2)N(C)C(=O)[C@H](CC(C)C)NC(=O)C(C)(C)N(C)C(=O)[C@H](Cc2ccc(OC)cc2)NC(=O)[C@H](Cc2cccc(I)c2)NC(=O)CN(C)C(=O)[C@H](CC2CCCCC2)N(C)C(=O)[C@@H]2CCN2C(=O)[C@H](C)N(C)C1=O [Compound 169] ([NMeL]I[NMeA][Aze][NMeCha][Sar][Phe(3-I)]Y(Me)[NMeAib]L[NMeD]-Piperidide; lactam N-11)	7.80
